{"source": "patent US4952402A", "about": "“Controlled release powder and process for its preparation” (priority 1984, dated 1990)", "origin": "cited, not measured here"}
{"smiles": "Cn1c(=O)c2[nH]cnc2n(C)c1=O", "note": "[theophylline]", "values": [{"measurement": "apparent biological half-life", "setting": "in vivo", "result": "4-9 hours"}, {"measurement": "time of peak", "setting": "rapid or immediate release", "result": 2, "unit": "h"}]}
